The source of these data is patent US20060122264A1, “Stem cell invasion inhibitor” (Yasumi Uchida, etal, priority 2003, published 2006).

Assay [1] relates to human coronary artery smooth muscle cells. Put plainly: Proliferation of human coronary artery smooth muscle cells. The class given is cell-based. As to conditions: Smooth muscle cells. Here is the method: (§1) Human umbilical vein endothelial cells (HUBEC) (1×10^5/cm^2) were inoculated into a medium containing MCDB-104, 10% FBS, ECGF (100 ng/mL), EGF (10 ng/mL), and heparin (100 ng/mL), and phenolsulfonphthalein or bromosulfophthalein was added to the medium, followed by culturing for three days. Thereafter, the resultant cells were counted, and the number of the cells was compared with that in the case where no drug was added to the medium. In a manner similar to that described above, human coronary artery smooth muscle cells (1×10^5/cm^2) were cultured in a medium containing MCDB-104, 10% FBS, and EGF (10 ng/mL) for three days, and the resultant cells were counted.

Assay [2] relates to Human umbilical vein endothelial cells (HUBEC). As to the kind of experiment: Proliferation of human vascular endothelial cells. It is filed as cell-based. As to conditions: Endothelial cells. Here is the method:
as §1

The conditions of assay [3]: International Publication WO 01/93871; cited from earlier work.
Assay [4] concerns human coronary artery smooth muscle cells. As to conditions: International Publication WO 01/93871; cited from earlier work.

Marks after values point to notes of the source that are not given here.

Regarding `Cc1cc(-c2ccc(/N=N/c3ccc4c(S(=O)(=O)O)cc(S(=O)(=O)O)c(N)c4c3O)c(C)c2)ccc1/N=N/c1ccc2c(S(=O)(=O)O)cc(S(=O)(=O)O)c(N)c2c1O` [Evans Blue], the “number of cells after culturing for three days” value in assay [1] (Concentration (mol) 10^−4) is recorded as 0.07***; in assay [1] (Concentration (mol) 10^−5), 0.34**; in assay [1] (Concentration (mol) 10^−6), 1.00*; in assay [1] (Concentration (mol) 10^−7) it was 3.50*; in assay [1] (Concentration (mol) 10^−8), 3.89; in assay [2] (Concentration (mol) 10^−4), 0.12**. Moreover, the “number of cells after culturing for three days” value in assay [2] (Concentration (mol) 10^−5) is listed as 0.98*; in assay [2] (Concentration (mol) 10^−6) it was 1.54*; in assay [2] (Concentration (mol) 10^−7) it was 3.11*; in assay [2] (Concentration (mol) 10^−8) it was 3.50. The antithrombotic effect result in assay [3] is listed as “antithrombotic effect”. In assay [4], the “effect of inhibiting proliferation of vascular smooth muscle cells” value was “has the effect of inhibiting proliferation of vascular smooth muscle cells”.
